For test [1], the system named is histamine. The conditions noted are these: metabolite of triprolidine in man; known from prior art; cited from earlier work.
For test [2], the system named is histamine. As to the kind of experiment: In vitro antihistaminic activity: shift of histamine concentration-response curves in isolated guinea-pig ileum longitudinal muscle (Schild plot). Format: biochemical, guinea-pigs. Conditions: negative log of molar antagonist concentration shifting the control histamine concentration-response curve 2X to the right; tissue incubated one hour with test compound; 60 min. The procedure:
A.Invitro antihistaminic activity: The longitudinal muscle was isolated from the intact ileum of guinea-pigs (Harley, male 250-400 g) and placed in an organ bath under 300 mg tension. After one hour of equilibration, cumulative concentration-response curves (Van Rossum, J.M., Arch. Int. Pharmacodyn. Ther. 143 299-330,1963) to histamine were obtained. Following washing, the tissues were incubated for one hour with the test compound and then a second histamine concentration-response curve was run. Shifts to the right of the agonist concentration-response curve produced by the antagonists were used to construct Schild plots (Arunlakshana, O. and Schild, H.O., Br. J. Pharmacol: 14, 48-58, 1959). Regression of Log (dr-1) on Log/B/, where dr is an equiactive response in the presence and absence of antagonist and /B/ is the molar concentration of antagonist, allowed an estimate of pA2, i.e. the negative log of the. concentration of antagonist which shifts the control histamine concentration-response curve 2X to the right.
The antihistaminic activities of compounds of the present invention are detailed in table A below.

For `O=C(O)c1ccc(/C(=C\CN2CCCC2)c2ccccn2)cc1` [(E)-1-(4-carboxyphenyl)-1-(2-pyridyl)-3-pyrrolidinoprop-1-ene], in the test on histamine [1], the antihistamine activity result is “little or no antihistamine activity”. What is called pA2 is a measure of antagonist potency on a negative log scale. As to `Cc1ccc(/C(=C\CN2CCCC2)c2cccc(/C=C/c3nnn[nH]3)n2)cc1` [Example 1, 5-(E-6-[3-pyrrolidino-1-(4-tolyl)prop-1E-enyl]-2-pyridylvinyl)-1H-tetrazole], the pA2 in the test with histamine [2] is listed as 8.7. On the same count and under the same terms, the value for `O=S(=O)(O)c1cccc(/C(=C/CN2CCCC2)c2ccccc2)c1` [Example 2, (E)-3-(1-phenyl-3-pyrrolidinoprop-1-enyl)-benzenesulphonic Acid] was 7.1; that for `O=S(=O)(O)c1cccc(C(CCN2CCCC2)c2ccccc2)c1` (stereo not shown) [Example 3, 3-(1-phenyl-3-pyrrolidinopropyl) benzenesulphonic acid] was 7.3.
